Here are results for one molecule from ChEMBL document CHEMBL4418490, “N-(heteroaryl)-sulfonamide derivatives useful as s100-inhibitors” (2018).

What all share (assay type): ADME, organism-based
A short description of series [1]: Plasma concentration in C215 transfected MC38 cells implanted C57BL/6 mouse at 1 mg/kg, iv dosed as cassette formulation and measured at 0.083 hrs after post dose by LC-MS analysis.
The nature of series [2]: Plasma concentration in C215 transfected MC38 cells implanted C57BL/6 mouse at 1 mg/kg, iv dosed as cassette formulation and measured at 1 hr after post dose by LC-MS analysis.
Series [3] in a line: Plasma concentration in C215 transfected MC38 cells implanted C57BL/6 mouse at 5 mg/kg, po dosed as cassette formulation and measured at 7 hrs after post dose by LC-MS analysis.
Series [4] in a line: Plasma concentration in C215 transfected MC38 cells implanted C57BL/6 mouse at 1 mg/kg, iv dosed as cassette formulation and measured at 0.5 hrs after post dose by LC-MS analysis.
The nature of series [5]: Plasma concentration in C215 transfected MC38 cells implanted C57BL/6 mouse assessed as 2,5-dichloro-N-(6-chloro-4-hydroxypyridin-3-yl)thiophene-3-sulfonamide level at 1 mg/kg, iv dosed as cassette formulation and measured at 4 hrs after post dose by LC-MS analysis. Conditions: in vivo.
Series [6] can be described thus: Plasma concentration in C215 transfected MC38 cells implanted C57BL/6 mouse at 1 mg/kg, iv dosed as cassette formulation and measured at 7 hrs after post dose by LC-MS analysis.
The nature of series [7]: Plasma concentration in C215 transfected MC38 cells implanted C57BL/6 mouse assessed as 2,5-dichloro-N-(6-chloro-4-hydroxypyridin-3-yl)thiophene-3-sulfonamide level at 5 mg/kg, po dosed as cassette formulation and measured at 1 hr after post dose by LC-MS analysis. Particulars: in vivo.
Series [8] can be described thus: Plasma concentration in C215 transfected MC38 cells implanted C57BL/6 mouse at 1 mg/kg, iv dosed as cassette formulation and measured at 2 hrs after post dose by LC-MS analysis.
A short description of series [9]: Plasma concentration in C215 transfected MC38 cells implanted C57BL/6 mouse assessed as 2,5-dichloro-N-(6-chloro-4-hydroxypyridin-3-yl)thiophene-3-sulfonamide level at 1 mg/kg, iv dosed as cassette formulation and measured at 7 hrs after post dose by LC-MS analysis. Particulars: in vivo.
Series [10] in a line: Plasma concentration in C215 transfected MC38 cells implanted C57BL/6 mouse assessed as 2,5-dichloro-N-(6-chloro-4-hydroxypyridin-3-yl)thiophene-3-sulfonamide level at 5 mg/kg, po dosed as cassette formulation and measured at 4 hrs after post dose by LC-MS analysis. Particulars: in vivo.
Series [11] in a line: Plasma concentration in C215 transfected MC38 cells implanted C57BL/6 mouse at 5 mg/kg, po dosed as cassette formulation and measured at 1 hr after post dose by LC-MS analysis.
A short description of series [12]: Plasma concentration in C215 transfected MC38 cells implanted C57BL/6 mouse at 5 mg/kg, po dosed as cassette formulation and measured at 0.5 hrs after post dose by LC-MS analysis.
Series [13] in a line: Plasma concentration in C215 transfected MC38 cells implanted C57BL/6 mouse assessed as 2,5-dichloro-N-(6-chloro-4-hydroxypyridin-3-yl)thiophene-3-sulfonamide level at 5 mg/kg, po dosed as cassette formulation and measured at 0.5 hrs after post dose by LC-MS analysis. Particulars: in vivo.
Series [14] in a line: Plasma concentration in C215 transfected MC38 cells implanted C57BL/6 mouse assessed as 2,5-dichloro-N-(6-chloro-4-hydroxypyridin-3-yl)thiophene-3-sulfonamide level at 5 mg/kg, po dosed as cassette formulation and measured at 7 hrs after post dose by LC-MS analysis. Particulars: in vivo.
Series [15] in a line: Plasma concentration in C215 transfected MC38 cells implanted C57BL/6 mouse assessed as 2,5-dichloro-N-(6-chloro-4-hydroxypyridin-3-yl)thiophene-3-sulfonamide level at 1 mg/kg, iv dosed as cassette formulation and measured at 0.083 hrs after post dose by LC-MS analysis. Conditions: in vivo.
The nature of series [16]: Plasma concentration in C215 transfected MC38 cells implanted C57BL/6 mouse at 5 mg/kg, po dosed as cassette formulation and measured at 2 hrs after post dose by LC-MS analysis.
The nature of series [17]: Plasma concentration in C215 transfected MC38 cells implanted C57BL/6 mouse assessed as 2,5-dichloro-N-(6-chloro-4-hydroxypyridin-3-yl)thiophene-3-sulfonamide level at 5 mg/kg, po dosed as cassette formulation and measured at 2 hrs after post dose by LC-MS analysis. Conditions: in vivo.
Series [18] in a line: Plasma concentration in C215 transfected MC38 cells implanted C57BL/6 mouse at 1 mg/kg, iv dosed as cassette formulation and measured at 4 hrs after post dose by LC-MS analysis.
Series [19] in a line: Plasma concentration in C215 transfected MC38 cells implanted C57BL/6 mouse at 5 mg/kg, po dosed as cassette formulation and measured at 4 hrs after post dose by LC-MS analysis.
The nature of series [20]: Plasma concentration in C215 transfected MC38 cells implanted C57BL/6 mouse assessed as 2,5-dichloro-N-(6-chloro-4-hydroxypyridin-3-yl)thiophene-3-sulfonamide level at 1 mg/kg, iv dosed as cassette formulation and measured at 0.5 hrs after post dose by LC-MS analysis. Particulars: in vivo.
The nature of series [21]: Plasma concentration in C215 transfected MC38 cells implanted C57BL/6 mouse assessed as 2,5-dichloro-N-(6-chloro-4-hydroxypyridin-3-yl)thiophene-3-sulfonamide level at 1 mg/kg, iv dosed as cassette formulation and measured at 2 hrs after post dose by LC-MS analysis. Conditions: in vivo.
The nature of series [22]: Plasma concentration in C215 transfected MC38 cells implanted C57BL/6 mouse assessed as 2,5-dichloro-N-(6-chloro-4-hydroxypyridin-3-yl)thiophene-3-sulfonamide level at 1 mg/kg, iv dosed as cassette formulation and measured at 1 hr after post dose by LC-MS analysis. Conditions: in vivo.

The molecule `COc1cc(Cl)ncc1NS(=O)(=O)c1cc(Cl)sc1Cl` registered a concentration at 0.083 h in [1] of 32200 nM. The concentration at 1 h in series [2] came out at 23700 nM; in series [11] it was 91600 nM. In addition, the concentration at 7 h was 50300 nM in series [3] and 2500 nM in series [6]. For the same molecule, the results for the concentration at 0.5 h in series [4] and in [12] were 19300 nM and 86800 nM, respectively. Further, the concentration is 180 nM in [5]; 490 nM in series [7]; 130 nM in series [9]; 610 nM in series [10]; 460 nM in series [13]; 780 nM in series [14]. Moreover, the concentration in series [15] was found to be 89 nM; in series [17] it was 690 nM; in [20] it was 200 nM; in series [21] it was 210 nM; in series [22] it was 190 nM. In addition, the concentration at 2 h was 17500 nM in series [8] and 109000 nM in series [16]. Besides, the concentration at 4 h in series [18] worked out at 7800 nM; in [19], 47100 nM.
